Source: paper PMC6446940 (ChemMedChem, 2018)
Where two headings read alike, the source gives them in different places.

How the values were obtained:
[1] = tested on: HIV-1 Env pseudovirus Q259ENV.W6; experiment: Single-cycle assay TZM-bl, Env pseudovirus panel; conditions: TZM-bl
[2] = tested on: HIV-1 Env pseudovirus QB726.70M.ENV.C4; experiment: Single-cycle assay TZM-bl, Env pseudovirus panel; conditions: TZM-bl
[3] = tested on: HIV-1 Env pseudovirus BG505-T332N; experiment: Single-cycle assay TZM-bl, Env pseudovirus panel; conditions: TZM-bl
[4] = tested on: HIV-1 Env pseudovirus KNH1144; experiment: Single-cycle assay TZM-bl, Env pseudovirus panel
[5] = tested on: HIV-1 Env pseudovirus QA790.204I.ENV.A4; experiment: Single-cycle assay TZM-bl, Env pseudovirus panel; conditions: TZM-bl
[6] = tested on: HIV-1 Env pseudovirus QA790.204I.ENV.C8; experiment: Single-cycle assay TZM-bl, Env pseudovirus panel; conditions: TZM-bl
[7] = tested on: HIV-1 Env pseudovirus QA790.204I.ENV.E2; experiment: Single-cycle assay TZM-bl, Env pseudovirus panel; conditions: TZM-bl
[8] = tested on: HIV-1 Env pseudovirus QG393.60M.ENV.B7; experiment: Single-cycle assay TZM-bl, Env pseudovirus panel; conditions: TZM-bl
[9] = tested on: HIV-1 Env pseudovirus CRF02_AG, clone 251; experiment: Single-cycle assay TZM-bl, Env pseudovirus panel; conditions: TZM-bl
[10] = tested on: HIV-1 Env pseudovirus CRF02_AG, clone 253; experiment: Single-cycle assay TZM-bl, Env pseudovirus panel
[11] = tested on: HIV-1 Env pseudovirus CRF02_AG, clone 257; experiment: Single-cycle assay TZM-bl, Env pseudovirus panel; conditions: TZM-bl
[12] = tested on: HIV-1 Env pseudovirus QH0692, clone 42; experiment: Single-cycle assay TZM-bl, Env pseudovirus panel; conditions: TZM-bl
[13] = tested on: HIV-1 Env pseudovirus PVO, clone 4; experiment: Single-cycle assay TZM-bl, Env pseudovirus panel; conditions: TZM-bl
[14] = tested on: HIV-1 Env pseudovirus TRO, clone 11; experiment: Single-cycle assay TZM-bl, Env pseudovirus panel; conditions: TZM-bl
[15] = tested on: HIV-1 Env pseudovirus REJO4541, clone 67; experiment: Single-cycle assay TZM-bl, Env pseudovirus panel
[16] = tested on: HIV-1 Env pseudovirus RHPA4259, clone 7; experiment: Single-cycle assay TZM-bl, Env pseudovirus panel; conditions: TZM-bl
[17] = tested on: HIV-1 Env pseudovirus 1054.TC4.1499; experiment: Single-cycle assay TZM-bl, Env pseudovirus panel; conditions: TZM-bl
[18] = tested on: HIV-1 Env pseudovirus B41; experiment: Single-cycle assay TZM-bl, Env pseudovirus panel; conditions: TZM-bl
[19] = tested on: HIV-1 Env pseudovirus Du422, clone 1; experiment: Single-cycle assay TZM-bl, Env pseudovirus panel; conditions: TZM-bl
[20] = tested on: HIV-1 Env pseudovirus ZM109F.PB4; experiment: Single-cycle assay TZM-bl, Env pseudovirus panel; conditions: TZM-bl
[21] = tested on: HIV-1 Env pseudovirus CAP210.2.00.E8; experiment: Single-cycle assay TZM-bl, Env pseudovirus panel; conditions: TZM-bl
[22] = tested on: HIV-1 Env pseudovirus HIV-00836-2, clone 5; experiment: Single-cycle assay TZM-bl, Env pseudovirus panel; conditions: TZM-bl
[23] = tested on: HIV-1 Env pseudovirus HIV-16936-2, clone 21; experiment: Single-cycle assay TZM-bl, Env pseudovirus panel; conditions: TZM-bl
[24] = tested on: HIV-1 Env pseudovirus HIV-25711-2, clone 4; experiment: Single-cycle assay TZM-bl, Env pseudovirus panel; conditions: TZM-bl
[25] = tested on: HIV-1 Env pseudovirus HIV-25925-2, clone 22; experiment: Single-cycle assay TZM-bl, Env pseudovirus panel
[26] = tested on: HIV-1 Env pseudovirus QB099.391M.ENV.C8; experiment: Single-cycle assay TZM-bl, Env pseudovirus panel; conditions: TZM-bl
[27] = tested on: HIV-1 Env pseudovirus QD435.100M.ENV.B5; experiment: Single-cycle assay TZM-bl, Env pseudovirus panel; conditions: TZM-bl
[28] = tested on: HIV-1 Env pseudovirus BG505.W6M.ENV.C2; experiment: Single-cycle assay, Paired Infant and Maternal Env clones
[29] = tested on: HIV-1 Env pseudovirus B1206.W6P.ENV.A1A; experiment: as above
[30] = tested on: HIV-1 Env pseudovirus MI206.W0M.ENV.D1; experiment: as above
[31] = tested on: HIV-1 Env pseudovirus ML274.W0M.ENV.B1; experiment: as above
[32] = tested on: HIV-1 Env pseudovirus BK184.W6M.ENV.D2; experiment: as above
[33] = tested on: HIV-1 Env pseudovirus MK184.W0M.ENV.E4; experiment: as above
[34] = tested on: HIV-1 panel of Paired Infant (B) and Maternal (M) Env Molecular Clones; experiment: Single-cycle assay, means over Paired Infant and Maternal Env clones
[35] = Human immunodeficiency virus 1, read-out: IC50 Mean ± SEM: Infant (B)
[36] = Human immunodeficiency virus 1, read-out: IC50 Mean ± SEM: Mother (M)
[37] = Human immunodeficiency virus 1, read-out: IC50 Mean ± SEM: Overall (n=10)

## NCC(NC(=O)c1ccc(-c2ccc3c(c2)OCO3)[nH]1)c1ncc(CO)s1 (stereo not drawn) [NBD-14123, N-(2-amino-1-(5-(hydroxymethyl)thiazol-2-yl)ethyl)-5-(benzo[d][1,3]dioxol-5-yl)-1H-pyrrole-2-carboxamide]
[1]
  IC50: 2.3 ± 0.2 µM
[2]
  IC50: 3.5 ± 0.1 µM
[3]
  IC50: 4 ± 0.5 µM
[4]
  IC50: 4.1 ± 0.4 µM
[5]
  IC50: 1.6 ± 0.1 µM
[6]
  IC50: 1.4 ± 0.2 µM
[7]
  IC50: 2.5 ± 0.3 µM
[8]
  IC50: 5.9 ± 0.2 µM
[9]
  IC50: 3.1 ± 0.2 µM
[10]
  IC50: 3.2 ± 0.2 µM
[11]
  IC50: 4.4 ± 0.1 µM
[12]
  IC50: 6.4 ± 0.1 µM
[13]
  IC50: 1.9 ± 0.2 µM
[14]
  IC50: 3.6 ± 0.2 µM
[15]
  IC50: 3.4 ± 0.2 µM
[16]
  IC50: 3.1 ± 0.7 µM
[17]
  IC50: 2.4 ± 0.3 µM
[18]
  IC50: 2.8 ± 0.3 µM
[19]
  IC50: 2.5 ± 0.3 µM
[20]
  IC50: 3 ± 0.2 µM
[21]
  IC50: 5.3 ± 0.2 µM
[22]
  IC50: 3.2 ± 0.2 µM
[23]
  IC50: 4.4 ± 0.5 µM
[24]
  IC50: 5.7 ± 0.7 µM
[25]
  IC50: 5.6 ± 0.3 µM
[26]
  IC50: 4.4 ± 0.6 µM
[27]
  IC50: 3.5 ± 0.3 µM
[28]
  IC50: 4.4 ± 0.1 µM
[29]
  IC50: 4.9 ± 0.3 µM
[30]
  IC50: 3.4 ± 0.3 µM
[31]
  IC50: 5.6 ± 0.4 µM
[32]
  IC50: 3.6 ± 0.1 µM
[33]
  IC50: 3.7 ± 0.1 µM
[34]; [35]
  IC50: 4.2e-06 ± 6e-07 M
[34]; [36]
  IC50: 4.1e-06 ± 4e-07 M
[34]; [37]
  IC50: 4.2e-06 ± 3e-07 M

## Cc1nc(C(CN)NC(=O)c2ccc(-c3ccc4c(c3)OCO4)[nH]2)sc1CO (stereo not drawn) [NBD-14110, N-(2-amino-1-(5-(hydroxymethyl)-4-methylthiazol-2-yl)ethyl)-5-(benzo[d][1,3]dioxol-5-yl)-1H-pyrrole-2-carboxamide]
[1]
  IC50: 1.9 ± 0.2 µM
[2]
  IC50: 3.7 ± 0.3 µM
[3]
  IC50: 4.2 ± 0.5 µM
[4]
  IC50: 5.9 ± 0.4 µM
[5]
  IC50: 2.1 ± 0.6 µM
[6]
  IC50: 2.4 ± 0.2 µM
[7]
  IC50: 1.5 ± 0.2 µM
[8]
  IC50: 5.2 ± 0.3 µM
[9]
  IC50: 2.5 ± 0.1 µM
[10]
  IC50: 3.2 ± 0.2 µM
[11]
  IC50: 5.4 ± 0.2 µM
[12]
  IC50: 8.2 ± 0.2 µM
[13]
  IC50: 1.4 ± 0.3 µM
[14]
  IC50: 2.4 ± 0.4 µM
[15]
  IC50: 3.4 ± 0.3 µM
[16]
  IC50: 2.8 ± 0.3 µM
[17]
  IC50: 4.2 ± 0.4 µM
[18]
  IC50: 2 ± 0.1 µM
[19]
  IC50: 1.8 ± 0.2 µM
[20]
  IC50: 4.9 ± 0.1 µM
[21]
  IC50: 5.5 ± 0.4 µM
[22]
  IC50: 1.7 ± 0.1 µM
[23]
  IC50: 3.5 ± 0.1 µM
[24]
  IC50: 4.4 ± 0.4 µM
[25]
  IC50: 4.7 ± 0.1 µM
[26]
  IC50: 4.3 ± 0.5 µM
[27]
  IC50: 2.4 ± 0.2 µM
[28]
  IC50: 4.8 ± 0.3 µM
[29]
  IC50: 5.6 ± 0.2 µM
[30]
  IC50: 4.7 ± 0.2 µM
[31]
  IC50: 7.1 ± 0.3 µM
[32]
  IC50: 3.7 ± 0.6 µM
[33]
  IC50: 3.4 ± 0.2 µM
[34]; [35]
  IC50: 4.8e-06 ± 8e-07 M
[34]; [36]
  IC50: 5.2e-06 ± 6e-07 M
[34]; [37]
  IC50: 5e-06 ± 5e-07 M
